Reference: PMC10362175, “Selenium-binding protein 1 (SELENBP1) is a copper-dependent thiol oxidase” (Redox Biology, 2023)

Key:
Assay type in all cases: biochemical
[1] = target: T1, methionine gamma-lyase (MGL) (Brevibacterium aurantiacum, UniProt A0A2H1K3G9); experiment: DTNB (Ellman's reagent) trapping of volatile thiol, […] nm; settings: HBS, 3 h
T1 construct: gene BAUR9175_03070

SELENBP1 = target: T2, SELENBP1 (Homo sapiens, UniProt Q13228); experiment: coupled MGL assay, H2S (lead acetate paper) and H2O2 (fluorometric); settings: Cu cofactor, HBS pH 7.4, 37 °C, 3 h
T2 construct: Strep-tagged recombinant, E. coli BL21 or KRX, Strep-Tactin XT purified, 56 kDa
T2 sequence (Q13228 2-472): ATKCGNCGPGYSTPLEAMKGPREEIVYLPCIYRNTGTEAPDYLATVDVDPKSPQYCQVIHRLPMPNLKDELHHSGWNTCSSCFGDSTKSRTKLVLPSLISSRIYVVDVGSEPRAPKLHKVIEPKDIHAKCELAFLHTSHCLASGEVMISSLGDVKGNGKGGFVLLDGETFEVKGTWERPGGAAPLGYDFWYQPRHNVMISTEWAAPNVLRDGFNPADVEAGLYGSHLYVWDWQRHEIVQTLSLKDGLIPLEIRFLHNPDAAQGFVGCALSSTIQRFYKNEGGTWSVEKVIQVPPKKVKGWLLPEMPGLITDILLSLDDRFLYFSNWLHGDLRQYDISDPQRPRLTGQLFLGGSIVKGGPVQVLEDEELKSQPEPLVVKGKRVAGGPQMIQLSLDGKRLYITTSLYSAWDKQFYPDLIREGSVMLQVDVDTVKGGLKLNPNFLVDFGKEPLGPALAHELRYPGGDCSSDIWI

SEMO-1 = target: T3, SEMO-1 (Caenorhabditis elegans, UniProt Q9XXF9); experiment: as above; settings: Cu cofactor; methanethiol generated in situ from L-methionine; HBS pH 7.4; 37 °C, 3 h
T3 construct: Strep-tagged recombinant, E. coli BL21 or KRX, Strep-Tactin XT purified
T3 sequence (Q9XXF9 entry or part of it): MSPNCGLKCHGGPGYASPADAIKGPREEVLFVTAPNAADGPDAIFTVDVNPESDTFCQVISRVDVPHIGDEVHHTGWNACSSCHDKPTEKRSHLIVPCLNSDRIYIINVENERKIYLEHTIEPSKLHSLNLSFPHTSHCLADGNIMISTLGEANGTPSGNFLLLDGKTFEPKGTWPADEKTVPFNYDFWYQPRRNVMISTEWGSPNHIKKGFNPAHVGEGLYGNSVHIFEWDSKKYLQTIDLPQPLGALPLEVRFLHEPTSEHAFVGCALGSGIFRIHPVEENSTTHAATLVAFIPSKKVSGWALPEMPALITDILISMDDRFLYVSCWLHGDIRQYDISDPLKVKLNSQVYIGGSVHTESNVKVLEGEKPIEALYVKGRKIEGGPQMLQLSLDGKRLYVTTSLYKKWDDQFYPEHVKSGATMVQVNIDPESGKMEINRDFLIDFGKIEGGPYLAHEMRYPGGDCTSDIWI

T1 sequence (A0A2H1K3G9 14-406 limits assumed): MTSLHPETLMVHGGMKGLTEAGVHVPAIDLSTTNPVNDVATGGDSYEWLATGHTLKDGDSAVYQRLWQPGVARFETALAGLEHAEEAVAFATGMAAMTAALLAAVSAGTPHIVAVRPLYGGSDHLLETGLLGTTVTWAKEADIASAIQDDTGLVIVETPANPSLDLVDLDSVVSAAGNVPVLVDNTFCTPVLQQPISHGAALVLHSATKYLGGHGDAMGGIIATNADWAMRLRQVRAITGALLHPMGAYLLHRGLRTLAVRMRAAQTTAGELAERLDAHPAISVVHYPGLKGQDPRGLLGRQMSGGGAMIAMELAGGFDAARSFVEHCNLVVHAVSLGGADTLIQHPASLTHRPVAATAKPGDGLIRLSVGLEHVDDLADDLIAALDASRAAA

N[C@@H](CCS)C(=O)O [L-homocysteine]
DTNB (Ellman's reagent) trapping of volatile thiol, 412 nm ([1]; product H2S): ethanethiol, methaneselenol and H2S were generated by MGL-mediated elimination from their precursor amino acids

CSCC[C@H](N)C(=O)O [L-methionine]
DTNB (Ellman's reagent) trapping of volatile thiol, 412 nm ([1]; product methanethiol): MGL-mediated generation of methanethiol from methionine served as positive control

CCS [ethanethiol]
coupled MGL assay, H2S (lead acetate paper) and H2O2 (fluorometric) (SELENBP1; ethanethiol generated in situ from DL-ethionine): methanethiol and ethanethiol are by far the best SELENBP1 substrates

CS [methanethiol]
coupled MGL assay, H2S (lead acetate paper) and H2O2 (fluorometric) (SELENBP1; methanethiol generated in situ from L-methionine): methanethiol and ethanethiol are by far the best SELENBP1 substrates
coupled MGL assay, H2S (lead acetate paper) and H2O2 (fluorometric) (SEMO-1): only the addition of cupric ions was capable of regenerating and even enhancing MTO activity
